Test results from patent publication US11371055B2, “Herbicide resistance genes” (CORTEVA AGRISCIENCE LLC, priority 2005, dated 2022).
Several values for one entry are separate records, joined by “and”; a condition that tells them apart may be missing. Identical values can stand only once.

Assays:
[1] = system: untransformed control canola plants; assay: 2,4-D DMA tolerance, untransformed canola control; type: in vivo, Brassica napus
From the text: Surviving plants were transplanted into 3-inch pots containing Metro Mix media. Surviving plants from T1 progenies, that were selected with 560 g ae/ha 2,4-D, were also transplanted into 3-inch pots filled with Metro Mix soil. At 2-4 leaf stage plants were sprayed with either 280, 560, 1120, or 2240 g ae/ha 2,4-D DMA. Plants were graded at 3 and 14 DAT and compared to untransformed control plants. A sampling of T1 event injury data 14DAT may be seen in Table 30.

[2] = system: wildtype Maverick soybeans; assay: 2,4-D spray application on wildtype soybean; type: in vivo, Glycine max
From the text: Plants that are transferred to the greenhouse can be assayed for the presence of an active PAT gene further with a non-destructive manner by painting a section of leaf of the T0 primary transformant, or progeny thereof, with a glufosinate solution [0.05-2% v/v Liberty Herbicide, preferably 0.25-1.0% (v/v),=500-2000 ppm glufosinate, Bayer Crop Science]. Depending on the concentration used, assessment for glufosinate injury can be made 1-7 days after treatment. Plants can also be tested for 2,4-D tolerance in a non-destructive manner by selective application of a 2,4-D solution in water (0.25-1% v/v commercial 2,4-D dimethylamine salt formulation, preferably 0.5% v/v=2280 ppm 2,4-D ae) to the terminal leaflet of the newly expanding trifoliolate one or two, preferably two, nodes below the youngest emerging trifolioate. This assay allows assessment of 2,4-D sensitive plants 6 hours to several days after application by assessment of leaf flipping or rotation >90 degrees from the plane of the adjacent leaflets. Plants tolerant to 2,4-D will not respond to 2,4-D. To plants will be allowed to self fertilize in the greenhouse to give rise to T1 seed. T1 plants (and to the extent enough T0 plant clones are produced) will be sprayed with a range of herbicide doses to determine the level of herbicide protection afforded by AAD-12 (v1) and PAT genes in transgenic soybean. Rates of 2,4-D used on T0 plants will typically comprise one or two selective rates in the range of 100-1120 g ae/ha using a track sprayer as previously described. T1 plants will be treated with a wider herbicide dose ranging from 50-3200 g ae/ha 2,4-D. Likewise, T0 and T1 plants can be screened for glufosinate resistance by postemergence treatment with 200-800 and 50-3200 g ae/ha glufosinate, respectively. Glyphosate resistance (in plants transformed with constructs that contain EPSPS) or another glyphosate tolerance gene can be assessed in the T1 generation by postemergence applications of glyphosate with a dose range from 280-2240 g ae/ha glyphosate. Analysis of protein expression will occur as described in below. Individual T0 plants were assessed for the presence of the coding region of the gene of interest (AAD-12 (v1) or PAT v6) and copy number. Determination of the inheritance of AAD-12 (v1) will be made using T1 and T2 progeny segregation with respect to herbicide tolerance as described in previous examples.
The screened plants were then sampled for molecular and biochemical analyses for the confirmation of the AAD12 (v1) genes integration, copy number, and their gene expression levels as described below and reported in Table 25.

[3] = Maverick WT individual plants (WT-5, WT-6, WT-7), spray 560 g ae/ha 2,4-D
[4] = Maverick WT individual plants (WT-10, WT-8, WT-9), spray 1120 g ae/ha 2,4-D

Structure (SMILES) | Average % injury 14 DAT ([1]; 280 g ae/ha) [%] | Average % injury 14 DAT ([1]; 560 g ae/ha) [%] | Average % injury 14 DAT ([1]; 1120 g ae/ha) [%] | Average % injury 14 DAT ([1]; 2240 g ae/ha) [%] | response to herbicide spray application ([2]; 560 g ae/ha 2,4-D, 7-14 DAT) | response to herbicide spray application ([2]; 1120 g ae/ha 2,4-D) | % injury 2 DAT [2, 3] | % injury 7 DAT [2, 3] | % injury 14 DAT [2, 3] | % injury 2 DAT [2, 4] [%] | % injury 7 DAT [2, 4] | % injury 14 DAT [2, 4] [%]
CNC.O=C(O)COc1ccc(Cl)cc1Cl [2,4-D DMA] | 85 | 85 | 90 | 95 | – | – | – | – | – | – | – | –
O=C(O)COc1ccc(Cl)cc1Cl [2,4-D, 2,4-dichlorophenoxyacetic acid] | – | – | – | – | severely injured | killed | 50% and 70% (2×) | 60% and 90% and 80% | 60% and 80% (2×) | 70 | 90% and 95% (2×) | 100
